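These data come from cells grown in 96-well plates and exposed to compound for 48 hours at five concentrations. GI50 marks 50% less growth.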 Active and inactive are the calls of the source. Rule as the data show it: active = GI50 up to about 1.1 µM and inactive = higher.
What was measured:
Assay in all cases: DTP human tumour cell line panel, 48 h
PC-3 = system: PC-3
UACC-257 = system: UACC-257
KM12 = system: KM12
EKVX = system: EKVX
SN12C = system: SN12C
SF-268 = system: SF-268
HCT-116 = system: HCT-116
M14 = system: M14
HL-60 = system: HL-60
NCI/ADR-RES = system: NCI/ADR-RES
SF-295 = system: SF-295
SR = system: SR
MOLT-4 = system: MOLT-4
MDA-MB-435 = system: MDA-MB-435
COLO 205 = system: COLO 205
DU-145 = system: DU-145
786-0 = system: 786-0
OVCAR-8 = system: OVCAR-8
NCI-H460 = system: NCI-H460
SK-MEL-28 = system: SK-MEL-28

Row | SMILES | GI50 (PC-3) | GI50 (UACC-257) | GI50 (KM12) | GI50 (EKVX) | GI50 (SN12C) | GI50 (SF-268) | GI50 (HCT-116) | GI50 (M14) | GI50 (HL-60) | GI50 (NCI/ADR-RES) | GI50 (SF-295) | GI50 (SR) | GI50 (MOLT-4) | GI50 (MDA-MB-435) | GI50 (COLO 205) | GI50 (DU-145) | GI50 (786-0) | GI50 (OVCAR-8) | GI50 (NCI-H460) | GI50 (SK-MEL-28)
1 | N#Cc1ccc(/C=[N+](/C=c2ccc(=C=[N-])cc2)N(CCO)C2=NCCN2)cc1 | > 100 µM (inactive) | > 100 µM (inactive) | > 100 µM (inactive) | > 100 µM (inactive) | > 100 µM (inactive) | > 100 µM (inactive) | > 100 µM (inactive) | > 100 µM (inactive) | > 100 µM (inactive) | > 100 µM (inactive) | > 100 µM (inactive) | > 100 µM (inactive) | > 100 µM (inactive) | > 100 µM (inactive) | > 100 µM (inactive) | > 100 µM (inactive) | > 100 µM (inactive) | > 100 µM (inactive) | > 100 µM (inactive) | –
2 | CCOC(=O)c1ccc(Nc2cnc3cc(C(F)(F)F)ccc3n2)cc1 | > 100 µM (inactive) | > 100 µM (inactive) | 85.1 µM (inactive) | > 100 µM (inactive) | > 100 µM (inactive) | > 100 µM (inactive) | 63 µM (inactive) | – | > 100 µM (inactive) | > 100 µM (inactive) | > 100 µM (inactive) | > 100 µM (inactive) | > 100 µM (inactive) | > 100 µM (inactive) | > 100 µM (inactive) | > 100 µM (inactive) | 40.3 µM (inactive) | > 100 µM (inactive) | > 100 µM (inactive) | 85.9 µM (inactive)
3 | CC(=O)O[C@H]1C(=O)[C@@]2(C)C(C(OC(=O)c3ccccc3)[C@]3(O)CC(OC(=O)C(O)C(NC(=O)c4ccccc4)c4cccc(Cl)c4)C(C)=C1C3(C)C)[C@]1(OC(C)=O)CO[C@@H]1C[C@@H]2O (stereo partly drawn) | 7.11 µM (inactive) | 9.46 µM (inactive) | 3.72 µM (inactive) | 7.23 µM (inactive) | 4.17 µM (inactive) | 7.26 µM (inactive) | 2.88 µM (inactive) | > 10 µM (inactive) | 1.38 µM (inactive) | > 10 µM (inactive) | > 10 µM (inactive) | 1.47 µM (inactive) | 4.8 µM (inactive) | 1.55 µM (inactive) | 3.1 µM (inactive) | 3.57 µM (inactive) | > 10 µM (inactive) | 5.92 µM (inactive) | 5.28 µM (inactive) | –
4 | CN(C)c1ccc(/C=N/c2ccc(-c3nc4ccccc4o3)cc2)cc1 | 29.7 µM (inactive) | 25.5 µM (inactive) | 31.8 µM (inactive) | 28.6 µM (inactive) | 60.8 µM (inactive) | 79.1 µM (inactive) | 53.7 µM (inactive) | 58.5 µM (inactive) | 20.8 µM (inactive) | 33.5 µM (inactive) | – | 36 µM (inactive) | 24.7 µM (inactive) | 30.1 µM (inactive) | 30.5 µM (inactive) | 52.5 µM (inactive) | 50.6 µM (inactive) | 31.8 µM (inactive) | 28.8 µM (inactive) | 67.8 µM (inactive)
5 | CCOC(=O)C1(C(N)=O)C(=O)c2ccncc2C1=O (stereo not drawn) | > 100 µM (inactive) | > 100 µM (inactive) | > 100 µM (inactive) | > 100 µM (inactive) | > 100 µM (inactive) | > 100 µM (inactive) | > 100 µM (inactive) | > 100 µM (inactive) | > 100 µM (inactive) | > 100 µM (inactive) | > 100 µM (inactive) | > 100 µM (inactive) | – | > 100 µM (inactive) | > 100 µM (inactive) | > 100 µM (inactive) | > 100 µM (inactive) | > 100 µM (inactive) | > 100 µM (inactive) | > 100 µM (inactive)
6 | CCOC(=O)c1sc2nc(SC)nc(Nc3ccc(OC)c(OC)c3)c2c1N | 63.8 µM (inactive) | > 100 µM (inactive) | > 100 µM (inactive) | 23.3 µM (inactive) | 60.3 µM (inactive) | 14.3 µM (inactive) | 7.05 µM (inactive) | 42.4 µM (inactive) | > 100 µM (inactive) | 3.48 µM (inactive) | 6.9 µM (inactive) | 20.9 µM (inactive) | – | 34.3 µM (inactive) | 83.4 µM (inactive) | 20.2 µM (inactive) | 5.51 µM (inactive) | 4.81 µM (inactive) | < 0.01 µM (active) | 14.7 µM (inactive)
7 | OCC1OC(c2n[nH]c3c(O)ncnc23)C(O)C1O (stereo not drawn) | 6.68 µM (inactive) | > 100 µM (inactive) | 16.7 µM (inactive) | 28 µM (inactive) | 10.3 µM (inactive) | – | 7.28 µM (inactive) | 5.48 µM (inactive) | 3.02 µM (inactive) | 4.22 µM (inactive) | 33.1 µM (inactive) | 27.7 µM (inactive) | 5.37 µM (inactive) | 34.4 µM (inactive) | 13.9 µM (inactive) | 1.48 µM (inactive) | 9.4 µM (inactive) | 4.11 µM (inactive) | 10.6 µM (inactive) | 50 µM (inactive)

— ChEMBL document CHEMBL1201862, “PubChem BioAssay data set” (2004)
